Read-outs that look alike come from different tables or passages of the source.
Legend:
CAMKK1 = target: T1, CAMKK1 (Homo sapiens, UniProt Q8N5S9); test: DiscoverX KINOMEscan binding assay at 1 μM, CAMKK1
T1 construct: purchased Eurofins DiscoverX KINOMEscan
Protocol: (§1) Compounds were screened at Eurofins DiscoverX (Freemont, CA) at a single concentration of 1 μM using binding assays as described previously. Briefly, extracts containing DNA-tagged kinases are incubated with immobilized kinase inhibitors and the test compound (at 1 μM). Test compounds that displace the immobilized broad-spectrum inhibitors are detected by quantitative PCR. The results are expressed as the percentage of kinase bound to the bead compared to DMSO control (%control). […] The formula to calculate S10 depicted in Equation (1). (1) S10(1 μM)=number of wild type kinase with % control ≤10/number of wild type kinase tested
(§2) A series of furo [2,3-b]pyridines were generated with modifications off the core at the 3- and 5-positions. They were profiled in the CAMKK2 enzyme assay we have described and utilized previously. Briefly, the enzyme assay measures the ability of the compound to inhibit the transfer of a radiolabeled phosphate from ATP to a CAMKK2-specific peptide. […] 5 was then profiled in the DiscoverX KINOMEscan™ assay panel to provide a view of the overall kinome-wide selectivity (Supplemental S2). This assay platform evaluates compound affinity for a panel of more than 400 wild-type human kinases. The S10 (1 µM), a calculated score that is reflective of broad kinome selectivity, is 0.002 for the probe molecule.

MYO3B = target: T2, MYO3B (Homo sapiens, UniProt Q8WXR4); test: DiscoverX KINOMEscan binding assay at 1 μM, MYO3B
T2 construct: purchased Eurofins DiscoverX KINOMEscan
T2 sequence (Q8WXR4 1-1341): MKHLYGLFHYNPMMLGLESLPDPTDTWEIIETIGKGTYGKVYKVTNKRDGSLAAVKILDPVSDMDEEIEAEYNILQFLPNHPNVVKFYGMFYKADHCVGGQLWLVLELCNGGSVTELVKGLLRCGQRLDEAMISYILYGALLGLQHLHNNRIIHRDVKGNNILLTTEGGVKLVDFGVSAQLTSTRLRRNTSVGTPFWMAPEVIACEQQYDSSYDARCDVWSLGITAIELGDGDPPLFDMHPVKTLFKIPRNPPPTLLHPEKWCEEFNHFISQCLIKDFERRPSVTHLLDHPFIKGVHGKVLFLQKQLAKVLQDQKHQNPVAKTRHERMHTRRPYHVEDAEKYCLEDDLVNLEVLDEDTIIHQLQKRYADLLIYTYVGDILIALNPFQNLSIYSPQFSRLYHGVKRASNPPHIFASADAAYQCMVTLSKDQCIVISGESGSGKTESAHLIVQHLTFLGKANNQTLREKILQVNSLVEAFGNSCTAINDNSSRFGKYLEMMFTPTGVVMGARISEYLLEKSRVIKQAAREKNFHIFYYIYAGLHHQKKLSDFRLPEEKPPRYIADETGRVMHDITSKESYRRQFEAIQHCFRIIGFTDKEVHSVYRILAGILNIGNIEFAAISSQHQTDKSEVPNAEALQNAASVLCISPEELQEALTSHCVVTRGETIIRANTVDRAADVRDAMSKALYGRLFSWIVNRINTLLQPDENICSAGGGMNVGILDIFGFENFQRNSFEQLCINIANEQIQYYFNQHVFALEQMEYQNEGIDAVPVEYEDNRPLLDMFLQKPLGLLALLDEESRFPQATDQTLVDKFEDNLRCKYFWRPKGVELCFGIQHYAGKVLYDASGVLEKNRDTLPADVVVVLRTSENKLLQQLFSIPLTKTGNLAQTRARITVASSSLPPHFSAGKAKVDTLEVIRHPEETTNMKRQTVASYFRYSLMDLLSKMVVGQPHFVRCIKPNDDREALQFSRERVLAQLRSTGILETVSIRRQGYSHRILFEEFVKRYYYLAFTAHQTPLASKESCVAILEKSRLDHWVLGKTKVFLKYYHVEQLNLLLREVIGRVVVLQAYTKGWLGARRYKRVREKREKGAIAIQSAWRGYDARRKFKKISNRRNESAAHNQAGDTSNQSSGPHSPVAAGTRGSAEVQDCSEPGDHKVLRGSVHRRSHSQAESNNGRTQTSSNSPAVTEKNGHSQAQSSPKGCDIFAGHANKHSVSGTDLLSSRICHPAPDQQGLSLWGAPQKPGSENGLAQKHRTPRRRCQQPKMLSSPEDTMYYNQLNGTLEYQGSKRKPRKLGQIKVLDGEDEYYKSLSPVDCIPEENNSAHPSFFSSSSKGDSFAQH
Protocol: as §1, §2

CAMKK2 = CAMKK2 (Homo sapiens, UniProt Q96RR4); test: DiscoverX KINOMEscan binding assay at 1 μM, CAMKK2; parameters: purchased Eurofins DiscoverX KINOMEscan
CAMKK2, sequence (Q96RR4 whole entry): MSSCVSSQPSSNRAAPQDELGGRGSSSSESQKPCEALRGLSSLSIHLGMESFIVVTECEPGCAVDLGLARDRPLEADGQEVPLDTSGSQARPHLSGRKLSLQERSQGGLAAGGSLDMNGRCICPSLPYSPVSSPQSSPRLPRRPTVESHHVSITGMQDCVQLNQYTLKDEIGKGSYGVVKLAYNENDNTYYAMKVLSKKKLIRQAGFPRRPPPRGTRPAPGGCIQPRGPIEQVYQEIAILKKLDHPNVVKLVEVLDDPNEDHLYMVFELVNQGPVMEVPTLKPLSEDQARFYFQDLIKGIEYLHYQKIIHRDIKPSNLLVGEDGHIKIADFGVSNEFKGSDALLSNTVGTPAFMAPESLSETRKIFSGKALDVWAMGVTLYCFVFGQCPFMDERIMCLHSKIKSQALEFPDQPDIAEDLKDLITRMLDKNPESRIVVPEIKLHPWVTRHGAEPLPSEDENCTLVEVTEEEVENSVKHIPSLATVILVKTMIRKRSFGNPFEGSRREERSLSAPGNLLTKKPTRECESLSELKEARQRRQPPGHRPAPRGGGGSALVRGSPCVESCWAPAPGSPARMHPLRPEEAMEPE
Protocol: as §1, §2

PIP4K2C = target: T3, PIP4K2C (Homo sapiens, UniProt Q8TBX8); test: DiscoverX KINOMEscan binding assay at 1 μM, PIP4K2C
T3 construct: purchased Eurofins DiscoverX KINOMEscan
T3 sequence (Q8TBX8 1-421): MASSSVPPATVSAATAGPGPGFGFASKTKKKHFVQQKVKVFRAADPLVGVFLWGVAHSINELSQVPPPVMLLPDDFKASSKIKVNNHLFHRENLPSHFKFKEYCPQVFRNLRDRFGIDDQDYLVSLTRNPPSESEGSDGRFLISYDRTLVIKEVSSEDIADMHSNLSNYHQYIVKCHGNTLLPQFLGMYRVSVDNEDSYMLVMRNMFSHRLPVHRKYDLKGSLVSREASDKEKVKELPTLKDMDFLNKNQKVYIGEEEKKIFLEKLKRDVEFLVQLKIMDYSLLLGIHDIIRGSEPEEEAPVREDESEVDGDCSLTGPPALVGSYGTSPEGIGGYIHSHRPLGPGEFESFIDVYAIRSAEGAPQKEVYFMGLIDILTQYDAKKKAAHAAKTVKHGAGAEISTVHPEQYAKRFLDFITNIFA
Protocol: as §1
(§3) In the DiscoverX KinomeSCAN® assay panel, when screened at a concentration of 1 µM, compound 7 bound to very few kinases with S10 (1 µM) = 0.005. The only two kinases with significant binding for compound 7 were PIP4K2C with a PoC = 7.2 and PIM2 with PoC = 7.4. PIP4K2C is a lipid kinase that has very little catalytic activity, and there is no commercially available kinase activity assay, so this potential off-target activity for the negative control remains uncharacterized.

PIM2 = PIM2 (Homo sapiens, UniProt Q9P1W9); test: DiscoverX KINOMEscan binding assay at 1 μM, PIM2; parameters: purchased Eurofins DiscoverX KINOMEscan
PIM2, sequence (Q9P1W9 whole entry): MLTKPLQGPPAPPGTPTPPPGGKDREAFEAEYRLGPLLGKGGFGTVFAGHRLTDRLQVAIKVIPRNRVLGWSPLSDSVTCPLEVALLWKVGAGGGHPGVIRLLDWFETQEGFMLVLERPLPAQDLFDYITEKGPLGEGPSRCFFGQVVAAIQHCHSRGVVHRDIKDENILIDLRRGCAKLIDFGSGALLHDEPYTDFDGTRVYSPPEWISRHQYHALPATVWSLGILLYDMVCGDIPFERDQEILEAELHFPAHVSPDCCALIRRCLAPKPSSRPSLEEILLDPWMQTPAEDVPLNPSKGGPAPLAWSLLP
Protocol: as §1, §3

[1] = percentage of control, compound at 1 μM, read-out: PoC (1 μM) CAMKK1
[2] = percentage of control, compound at 1 μM, read-out: PoC (1 μM) CAMKK2

T1 sequence (Q8N5S9 whole entry): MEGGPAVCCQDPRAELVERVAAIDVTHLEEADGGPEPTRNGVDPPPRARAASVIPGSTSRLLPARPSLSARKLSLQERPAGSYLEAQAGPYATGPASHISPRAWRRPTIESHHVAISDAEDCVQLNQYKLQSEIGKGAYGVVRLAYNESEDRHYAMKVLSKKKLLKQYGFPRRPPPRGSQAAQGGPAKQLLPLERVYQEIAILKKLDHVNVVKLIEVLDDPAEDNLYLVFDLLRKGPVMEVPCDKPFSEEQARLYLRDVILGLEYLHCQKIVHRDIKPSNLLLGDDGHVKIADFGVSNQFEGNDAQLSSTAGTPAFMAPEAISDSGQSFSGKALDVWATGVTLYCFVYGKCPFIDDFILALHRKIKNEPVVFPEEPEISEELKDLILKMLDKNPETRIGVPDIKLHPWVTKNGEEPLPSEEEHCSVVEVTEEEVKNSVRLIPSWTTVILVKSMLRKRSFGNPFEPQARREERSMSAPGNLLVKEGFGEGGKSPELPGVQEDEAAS

Cc1cccc(-c2cnc3occ(-c4ccc(C(=O)O)c(C5CCCC5)c4)c3c2)c1 [Compound 5]
remaining binding at 1 µM (CAMKK1; [1]): 12% | remaining binding at 1 µM (MYO3B; percentage of control, compound at 1 μM, read-out: PoC (1 μM) MYO3B): 45% | remaining binding at 1 µM (CAMKK2; [2]): 5.4%

O=C(O)c1ccc(-c2coc3ncc(-c4ccccc4)cc23)cc1Cl [Compound 7]
remaining binding at 1 µM (CAMKK1; [1]): 91% | remaining binding at 1 µM (PIP4K2C; percentage of control, compound at 1 μM, read-out: PoC (1 μM) PIP4K2C): 7.2% | remaining binding at 1 µM (CAMKK2; [2]): 84% | remaining binding at 1 µM (PIM2; percentage of control, compound at 1 μM, read-out: PoC (1 μM) PIM2): 7.4%

O=C(O)c1ccc(-c2coc3ncc(-c4ccccc4)cc23)cc1Cl [SGC-CAMKK2-1N (UNC-YL-83)]
remaining binding at 1 µM (CAMKK1; CAMKK1, 1000 nM, read-out: Percent Control): 91% | remaining binding at 1 µM (MYO3B; Compound Concentration 1000 nM, read-out: Percent Control): 100% | remaining binding at 1 µM (PIP4K2C; PIP5K2C (PIP4K2C), 1000 nM, read-out: Percent Control): 7.2% | remaining binding at 1 µM (CAMKK2; CAMKK2, 1000 nM, read-out: Percent Control): 84% | remaining binding at 1 µM (PIM2; PIM2, 1000 nM, read-out: Percent Control): 7.4%

Cc1cccc(-c2cnc3occ(-c4ccc(C(=O)O)c(C5CCCC5)c4)c3c2)c1 [SGC-CAMKK2-1 (YL-36)]
remaining binding at 1 µM (CAMKK1; 1000 nM, Entrez CAMKK1, read-out: Percent Control): 15% | remaining binding at 1 µM (MYO3B; 1000 nM, Entrez MYO3B, read-out: Percent Control): 100% | remaining binding at 1 µM (PIP4K2C; 1000 nM, DiscoveRx PIP5K2C, Entrez PIP4K2C, read-out: Percent Control): 61% | remaining binding at 1 µM (CAMKK2; 1000 nM, Entrez CAMKK2, read-out: Percent Control): 7.5% | remaining binding at 1 µM (PIM2; 1000 nM, Entrez PIM2, read-out: Percent Control): 96%

Source: publication PMC9856672, “SGC-CAMKK2-1: A Chemical Probe for CAMKK2” (Cells, 2023)
